For one experiment, the system named is MDA-MB-231. As to the kind of experiment: Anticancer activity against human MDA-MB-231 cells after 24 hrs by MTT assay. Type of experiment: functional, cell-based. The following applies: MDA-MB-231, 24 h. (Tetrazolium assays rely on reduction of a dye to a coloured formazan, in cell work by metabolically active cells.)
The subject of the next experiment is MCF7. As to the kind of experiment: Anticancer activity against human MCF7 cells after 24 hrs by MTT assay. The class given is functional, cell-based. The following applies: MCF7, 24 h.

The values that follow come from ChEMBL document CHEMBL4033627, “Quest for steroidomimetics: Amino acids derived steroidal and nonsteroidal architectures” (Eur J Med Chem, 2017).

In general, IC50 refers to the concentration that inhibits the measured activity by half. In the case of `Cc1ccc(S(=O)(=O)N2Cc3ccccc3OC[C@@H]2Cc2ccc(O)cc2)cc1`, the IC50 turned out to be 30 µM with MDA-MB-231 and 20 µM with MCF7.
